The values below come from US20210024545A1, “SUBSTITUTED DIAZAHETERO-BICYCLIC COMPOUNDS AND THEIR USE” (Bayer Aktiengesellschaft, priority 2016, published 2021).

Usually IC50 stands for the concentration at which inhibition is half-maximal.

What all share (format): cell-based
Assay [1] addresses T1, human TASK-1 (Homo sapiens, UniProt O14649). Nature of the assay: Inhibition of recombinant TASK-1 in stably transfected CHO cells, KCl-induced depolarization, voltage-sensitive dye (B-2). More on the design: expressed in transfected cells; host or cells: stably transfected CHO cells. As to conditions: depolarization induced by 40 mM potassium chloride, some mean values from multiple determinations. The essentials:
(§1)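 Stably transfected CHO cells loaded with a voltage-sensitive membrane potential dye. Depolarization was induced with 40 mM KCl, and compound inhibition of it was read by fluorescence. IC50 is the concentration blocking half of the KCl-induced depolarization; some values are means of multiple independent determinations.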

The target in assay [2] is T2, human TASK-3 (Homo sapiens, UniProt Q9NPC2). Nature of the assay: Inhibition of recombinant TASK-3 in stably transfected CHO cells, KCl-induced depolarization, voltage-sensitive dye (B-2). More on the design: expressed in transfected cells; host or cells: stably transfected CHO cells. As to conditions: depolarization induced by 40 mM potassium chloride, some mean values from multiple determinations. The essentials: as §1
T2 sequence (Q9NPC2 whole entry): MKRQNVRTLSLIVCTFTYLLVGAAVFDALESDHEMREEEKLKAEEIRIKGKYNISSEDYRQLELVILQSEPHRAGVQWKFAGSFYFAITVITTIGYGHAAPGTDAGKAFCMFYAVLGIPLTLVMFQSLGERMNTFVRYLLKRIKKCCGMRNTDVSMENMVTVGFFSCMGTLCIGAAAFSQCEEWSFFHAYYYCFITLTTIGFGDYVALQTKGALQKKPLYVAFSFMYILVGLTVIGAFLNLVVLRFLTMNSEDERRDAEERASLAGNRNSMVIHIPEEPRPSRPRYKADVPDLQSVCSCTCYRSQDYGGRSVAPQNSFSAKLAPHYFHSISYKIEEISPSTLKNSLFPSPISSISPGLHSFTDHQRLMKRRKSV

The target in assay [3] is T2, human TASK-3. As to the kind of experiment: Two-electrode voltage clamp analysis of human TASK-3 channel in Xenopus laevis oocytes (B-1). More on the design: expressed in transfected cells; host or cells: Xenopus laevis oocytes injected with cRNA. To be noted: Xenopus laevis oocytes injected with TASK-3 cRNA, 21-22° C. The method, then: (§2) B-1. In Vitro Electrophysiological Analysis of the Human TASK-1 and TASK-3 Channels via Two-Electrode Voltage Clamp Technique in Xenopus laevis Oocytes
(§3) Xenopus laevis oocytes were selected as described elsewhere by way of illustration [Decher et al., FEBS Lett. 492, 84-89 (2001)]. Subsequently, the oocytes were injected with 0.5-5 ng of a cRNA solution coding for TASK-1 or TASK-3. For the electrophysiological analysis of the channel proteins expressed in the oocytes, the two-electrode voltage clamp technique [Stühmer, Methods Enzymol. 207, 319-339 (1992)] was used. The measurements were conducted as described [Decher et al., FEBS Lett. 492, 84-89 (2001)] at room temperature (21-22° C.) using a Turbo TEC 10CD amplifier (NPI), recorded at 2 kHz and filtered with 0.4 kHz. Substance administration was performed using a gravitation-driven perfusion system. Here, the oocyte is located in a measuring chamber and exposed to the solution stream of 10 ml/min The level in the measuring chamber is monitored and regulated by sucking off the solution using a peristaltic pump.
For orientation: Two-electrode voltage clamp is typically applied to oocytes expressing channels or transporters.

Assay [4] concerns the target T1, human TASK-1. Nature of the assay: Two-electrode voltage clamp analysis of human TASK-1 channel in Xenopus laevis oocytes (B-1). More on the design: expressed in transfected cells; host or cells: Xenopus laevis oocytes injected with cRNA. As to conditions: Xenopus laevis oocytes injected with TASK-1 cRNA, 21-22° C. The method, then:
as §2, §3

In assay [5] the target is T1, human TASK-1. As to the kind of experiment: Washout rate after binding to the human TASK-1 channel, two-electrode voltage clamp in Xenopus laevis oocytes (B-4). More on the design: expressed in transfected cells; host or cells: Xenopus laevis oocytes injected with cRNA transcribed from the pSGEM vector. As to conditions: TASK-1 inhibited beforehand by about 40% at the concentration of Table 3 (30-80 nM); restoration of current recorded over at least one hour. An excerpt: The washout rate is defined as the washout of a compound according to the invention from the TASK-1 channel in % h^−1, measured by means of electrophysiological analysis on TASK-1-expressing Xenopus laevis oocytes via the two-electrode voltage clamp technique according to the description in section B-4.
B-4. In Vitro Electrophysiological Analysis of the Washout Rate of Compounds After Binding to the Human TASK-1 Channel via Two-Electrode Voltage Clamp Technique in Xenopus laevis Oocytes
Xenopus laevis oocytes were obtained from animals that had been anaesthetized with tricaine. Ovaries were treated with collagenase (1 mg/ml, Worthington, type II), stored in OR2 solution (82.5 mM NaCl, 2 mM KC1, 1 mM MgCl2, 5 mM HEPES; pH 7.4) for 120 min and then kept in the ND96 standard solution (96 mM NaCl, 2 mM KC1, 1.8 mM CaCl2, 1 mM MgCl2, 5 mM HEPES; pH 7.5) with additional sodium pyruvate (275 mg/l), theophylline (90 mg/1) and gentamicin (50 mg/1) at 18° C. hTASK-1 and hTASK-3 were subcloned into the pSGEM vector, and cRNA was produced after linearization with NHEI and in vitro transcription with T7 polymerase. Oocytes were injected individually with 5-20 ng of cRNA solution that encodes hTASK-1. Standard two-electrode voltage clamp recordings [Stühmer, Methods Enzymol. 207, 319-339 (1992)] were conducted at room temperature (21-22° C.) with a Turbo-TEC-10CD amplifier (NPI) as described above [Decher et al., FEBS Lett. 492, 84-89 (2001)]. The measurement interval was 2 kHz, and the data were filtered at 0.4 kHz. Substances were applied in a gravity-driven manner via the bath solution, using ND96. In summary, Xenopus laevis oocytes were selected as described above, injected with TASK-1 cRNA and subjected to an electrophysiological analysis via the two-electrode voltage clamp technique.
The TASK-1 channels were inhibited beforehand by a value of about 40% by administration of one of the compounds of the invention. The concentrations shown in Table 3 below were established here, which had been ascertained beforehand by determining the IC50 values in question. Subsequently, the restoration of the TASK-1-related membrane current was recorded in the voltage clamp over at least one hour. This restoration is caused by the washout of the compound in question from the TASK-1 channel
At least 6 oocytes were examined for every compound. The voltage clamp measurements took a total of at least 1.5 hours (administration of the inhibitor plus at least one subsequent hour of washout measurement).

T1 sequence (O14649 whole entry): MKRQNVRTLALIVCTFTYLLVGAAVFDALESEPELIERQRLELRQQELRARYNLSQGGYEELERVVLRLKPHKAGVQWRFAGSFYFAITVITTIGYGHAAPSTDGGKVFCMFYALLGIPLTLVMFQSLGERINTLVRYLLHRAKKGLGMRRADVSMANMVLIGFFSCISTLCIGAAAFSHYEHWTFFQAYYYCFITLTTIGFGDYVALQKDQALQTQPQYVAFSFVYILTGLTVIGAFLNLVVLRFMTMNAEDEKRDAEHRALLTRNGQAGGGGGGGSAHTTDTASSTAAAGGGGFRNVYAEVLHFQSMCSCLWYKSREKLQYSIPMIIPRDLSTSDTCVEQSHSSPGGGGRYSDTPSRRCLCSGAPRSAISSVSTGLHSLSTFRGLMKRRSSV

With `COc1ccc(F)c(C(=O)N2CC3CCC2CN3Cc2c(-c3ccc(Cl)cn3)nc3ccccn23)n1` (single isomer, unassigned; enantiomer 1) [Example 24, (5-{[2-(5-Chloropyridin-2-yl)imidazo[1,2-a]pyridin-3-yl]methyl}-2,5-diazabicyclo[2.2.2]oct-2-yl)(3-fluoro-6-methoxypyridin-2-yl)methanone (enantiomer 1)], the IC50 in assay [1] was found to be 0.14 µM; in assay [2] it was 0.0045 µM; in assay [3] it was 0.0312 ± 0.0058 µM.

For `O=C(c1ccccc1F)N1C2CCC1CN(Cc1c(-c3ccc(Cl)cc3)nc3ccccn13)C2` [Example 102], the IC50 in assay [1] came to 0.277 µM; in assay [2] it was 0.056 µM; in assay [4], 0.0087 ± 0.0036 µM; in assay [3] it was 0.0043 ± 0.0035 µM.

With `COc1cccc(C(=O)N2C3CCC2CN(Cc2c(-c4ccc(Cl)cc4)nc4ccccn24)C3)n1` [Example 104], the IC50 in assay [1] came out at 0.255 µM; in assay [2] it was 0.032 µM; in assay [4] it was 0.0607 ± 0.012 µM; in assay [3], 0.0042 ± 0.001 µM.

On to `COc1ccc(F)c(C(=O)N2CC3CCC2CN3Cc2c(-c3ccc(C(C)C)nc3)nc3ccccn23)n1` (single isomer, unassigned) [Example 126, (3-Fluoro-6-methoxypyridin-2-yl)(5-{[2-(6-isopropylpyridin-3-yl)imidazo[1,2-a]pyridin-3-yl]methyl}-2,5-diazabicyclo[2.2.2]oct-2-yl)methanone], for which the IC50 in assay [1] is 17.9 µM; in assay [2], 0.713 µM; in assay [4], 0.127 ± 0.0085 µM; in assay [3], 0.7142 ± 0.0009 µM.

`O=C(C1CCCC1)N1CC2CCC(C1)N2Cc1c(-c2ccc(Cl)cc2)nc2ccccn12` [Example 86]: the IC50 in assay [1] came to 0.331 µM; in assay [2], 0.126 µM; in assay [4], 0.0171 ± 0.0035 µM; in assay [3] it was 0.0584 ± 0.0121 µM.

As to `COc1cccc(C(=O)N2C[C@H]3CC[C@@H]2CN3Cc2c(-c3ccc(Cl)cc3)nc3ccccn23)n1` [Example 34], the half-inhibitory concentration (IC50) in assay [1] amounted to 0.855 µM; in assay [2], 0.084 µM; in assay [4], 0.0186 ± 0.0043 µM; in assay [3], 0.0103 ± 0.0009 µM.

For the molecule `COc1cccc(C(=O)N2CC3CCC(C2)N3Cc2c(-c3ccc(Cl)cc3)nc3ccccn23)n1` [Example 92], the IC50 in assay [1] was 0.895 µM; in assay [2], 0.029 µM; in assay [4], 0.0135 ± 0.0012 µM; in assay [3], 0.0059 ± 0.0018 µM.

`O=C(C1CCCO1)N1C2CC1CN(Cc1c(-c3ccc(Cl)cc3)nc3ccccn13)C2` (racemic) [Example 115]: the concentration for half-maximal inhibition (IC50) in assay [1] was found to be 4.24 µM; in assay [2], 2.4 µM; in assay [4] it was 0.0228 ± 0.0037 µM; in assay [3] it was 0.186 ± 0.0054 µM.

`COc1cccc(C(=O)N2C3CCC2CN(Cc2c(-c4ccc(Cl)cn4)nc4ccccn24)C3)n1` [Example 33, (3-{[2-(5-Chloropyridin-2-yl)imidazo[1,2-a]pyridin-3-yl]methyl}-3,8-diazabicyclo[3.2.1]oct-8-yl)(6-methoxypyridin-2-yl)methanone]: the half-maximal inhibitory concentration (IC50) in assay [1] stood at 0.14 µM; in assay [2], 0.026 µM. The Washout rate in assay [5] amounted to 55 % h^−1.

With `O=C(c1cccc(OC(F)F)n1)N1CC2CCC1CN2Cc1c(-c2ccc(Cl)cn2)nc2ccccn12` (single isomer, unassigned; enantiomer 1) [Example 200, (5-{[2(5-Chloropyridin-2-yl)imidazo[1,2-a]pyridin-3-yl]methyl}-2,5-diazabicyclo[2.2.2]oct-2-yl)[6-(difluoromethoxy)pyridin-2-yl]methanone (enantiomer 1)], the figures for the IC50 in assay [1] and in assay [2] were 0.877 µM and 0.075 µM, respectively.

Consider `CC(C)(C)OC(=O)N1C2CCC1CN(Cc1c(-c3ccc(Br)cc3)nc3ccccn13)C2` [Example 11], for which the IC50 is 1.4 µM in assay [1] and 0.94 µM in assay [2].

Consider `COc1cccc(C(=O)N2C3COCC2CN(Cc2c(-c4ccc(Cl)cc4)nc4ccccn24)C3)n1` [Example 29, (7-{[2-(4-Chlorophenyl)imidazo[1,2-a]pyridin-3-yl]methyl}-3-oxa-7,9-diazabicyclo[3.3.1]non-9-yl)(6-methoxypyridin-2-yl)methanone], for which the IC50 came out at 0.46 µM in assay [1] and 0.05 µM in assay [2]. The Washout rate in assay [5] was 17 % h^−1.

As to `CCN(C(=O)N1C2CCC1CN(Cc1c(-c3ccc(Cl)cc3)nc3ccccn13)C2)C1CCCCC1` [Example 175, 3-{[2-(4-Chlorophenyl)imidazo[1,2-a]pyridin-3-yl]methyl}-N-cyclohexyl-N-ethyl-3,8-diazabicyclo[3.2.1]octane-8-carboxamide], the IC50 is 0.043 µM in assay [1] and 0.2 µM in assay [2].

`Cc1cccc(C)c1NC(=O)N1C2CCC1CN(Cc1c(-c3ccc(Cl)cc3)nc3ccccn13)C2` [Example 157, 3-{[2-(4-Chlorophenyl)imidazo[1,2-a]pyridin-3-yl]methyl}-N-(2,6-dimethylphenyl)-3,8-diazabicyclo[3.2.1]octane-8-carboxamide]: the IC50 stood at 0.024 µM in assay [1] and 0.0074 µM in assay [2].

Regarding `COc1cccc(C(=O)N2CC3CCC2CN3Cc2c(-c3ccc(C(C)C)cc3)nc3ccccn23)n1` (single isomer, unassigned) [Example 61], the IC50 was determined as 0.68 µM in assay [1] and 0.087 µM in assay [2].

On to `O=C(C1CCCC1)N1C2CCC1CN(Cc1c(-c3ccc(Cl)cn3)nc3ccccn13)C2` [Example 113], for which the half-inhibitory concentration (IC50) in assay [1] came out at 0.089 µM; in assay [2], 0.021 µM.

With `O=C(N1CCCCC1)N1C2CCC1CN(Cc1c(-c3ccc(Cl)cc3)nc3ccccn13)C2` [Example 179, (3-{[2-(4-Chlorophenyl)imidazo[1,2-a]pyridin-3-yl]methyl}-3,8-diazabicyclo[3.2.1]oct-8-yl)(piperidin-1-yl)methanone], the IC50 in assay [1] was 0.27 µM; in assay [2], 0.0029 µM.

Turning to `COc1cccc(C(=O)N2C3CCC2CN(Cc2c(-c4ccc(Br)cc4)nc4ccccn24)C3)c1` [Example 99], the IC50 in assay [1] amounted to 0.47 µM; in assay [2], 0.016 µM.

Consider `CC(C)c1ccc(-c2nc3ccccn3c2CN2CC3CCC(C2)N3C(=O)c2ccccc2F)cc1` [Example 110], for which the IC50 is 0.78 µM in assay [1] and 0.3 µM in assay [2].

`CCOc1cccc(C(=O)N2C3CC2CN(Cc2c(-c4ccc(Cl)cc4)nc4ccccn24)C3)c1` [Example 122]: the IC50 in assay [1] came to 1.1 µM; in assay [2], 0.12 µM.
